Reference: PubChem BioAssay AID248 (DTP/NCI, 2004)
“And” between values parts separate entries of the source, which are not always exact repeats. Identical values can stand only once. Toxic doses and inconclusive results are not listed. Cut-off read from the data, not from the text of the source: active = T/C of 150% or more; inactive = T/C below 125%.

System: L1210 leukemia ip in BDF1 mice, survival T/C
Test: NCI In Vivo Anticancer Drug Screen. Data for tumor model L1210 Leukemia (intraperitoneal) in B6D2F1 (BDF1) mice
Details: endpoint: mean survival time, higher = longer survival
Outline: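 Value reflects the ratio of survival in compound-treated mice to survival in vehicle-treated controls, with both groups carrying the same transplanted tumor.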

[1] = dose: 100.0 mg/kg/injection, schedule: Q01DX009 (ip), vehicle: Klucel (hydroxypropylcellulose) (HPC)
[2] = dose: 100.0 mg/kg/injection, schedule: Q04DX003 (ip), vehicle: Klucel (hydroxypropylcellulose) (HPC)
[3] = dose: 200.0 mg/kg/injection, schedule: Q01DX009 (ip), vehicle: Klucel (hydroxypropylcellulose) (HPC)
[4] = dose: 200.0 mg/kg/injection, schedule: Q04DX003 (ip), vehicle: Klucel (hydroxypropylcellulose) (HPC)
[5] = dose: 100.0 mg/kg/injection, schedule: Q01DX001 (ip), vehicle: saline
[6] = dose: 100.0 mg/kg/injection, schedule: Q04DX002 (ip), vehicle: saline with Tween-80
[7] = dose: 200.0 mg/kg/injection, schedule: Q04DX002 (ip), vehicle: saline with Tween-80
[8] = dose: 400.0 mg/kg/injection, schedule: Q04DX002 (ip), vehicle: saline with Tween-80
[9] = dose: 100.0 mg/kg/injection, schedule: Q04DX003 (ip), vehicle: saline sonified
[10] = dose: 200.0 mg/kg/injection, schedule: Q04DX003 (ip), vehicle: saline sonified
[11] = dose: 400.0 mg/kg/injection, schedule: Q04DX003 (ip), vehicle: saline sonified
[12] = dose: 100.0 mg/kg/injection, schedule: Q04DX002 (ip), vehicle: saline
[13] = dose: 200.0 mg/kg/injection, schedule: Q04DX002 (ip), vehicle: saline
[14] = dose: 100.0 mg/kg/injection, schedule: Q01DX001 (ip), vehicle: saline with Tween-80
[15] = dose: 200.0 mg/kg/injection, schedule: Q01DX001 (ip), vehicle: saline with Tween-80
[16] = dose: 400.0 mg/kg/injection, schedule: Q01DX001 (ip), vehicle: saline with Tween-80
[17] = dose: 100.0 mg/kg/injection, schedule: Q04DX002 (ip), vehicle: Klucel (hydroxypropylcellulose) (HPC)
[18] = dose: 200.0 mg/kg/injection, schedule: Q04DX002 (ip), vehicle: Klucel (hydroxypropylcellulose) (HPC)
[19] = dose: 400.0 mg/kg/injection, schedule: Q04DX002 (ip), vehicle: Klucel (hydroxypropylcellulose) (HPC)
[20] = dose: 100.0 mg/kg/injection, schedule: Q04DX003 (ip), vehicle: saline with Tween-80
[21] = dose: 100.0 mg/kg/injection, schedule: Q04DX003 (ip), vehicle: saline
[22] = dose: 200.0 mg/kg/injection, schedule: Q04DX003 (ip), vehicle: saline

Measured: T/C

O=c1oc(-c2ccccc2I)nc2ccccc12
inactive: dose: 50.0 mg/kg/injection, schedule: Q04DX003 (ip), vehicle: Klucel (hydroxypropylcellulose) (HPC) 88 % of control | [1] 95 % of control | [2] 103 % of control | [3] 97 % of control | [4] 97 % of control | dose: 400.0 mg/kg/injection, schedule: Q01DX009 (ip), vehicle: Klucel (hydroxypropylcellulose) (HPC) 88 % of control | dose: 400.0 mg/kg/injection, schedule: Q04DX003 (ip), vehicle: Klucel (hydroxypropylcellulose) (HPC) 104 % of control

Cn1c(N)c(N=CC2CCCCC2)c(=O)n(C)c1=O
inactive: [5] 100 % of control | dose: 200.0 mg/kg/injection, schedule: Q01DX001 (ip), vehicle: saline 100 % of control | dose: 400.0 mg/kg/injection, schedule: Q01DX001 (ip), vehicle: saline 102 % of control

CCCCC(CC)(CC)OC(=O)c1ccc([N+](=O)[O-])cc1
inactive: [6] 87 % of control | [7] 106 % of control | [8] 98 % of control

O=C(OCC1COc2ccccc2O1)C(F)(F)F (stereo not given)
inactive: dose: 100.0 mg/kg/injection, schedule: Q01DX001 (ip), vehicle: carboxymethylcellulose (CMC) 95 % of control | dose: 200.0 mg/kg/injection, schedule: Q01DX001 (ip), vehicle: carboxymethylcellulose (CMC) 93 % of control | dose: 400.0 mg/kg/injection, schedule: Q01DX001 (ip), vehicle: carboxymethylcellulose (CMC) 98 % of control

CCCCCCOCC(O)CNCCN (stereo not given)
inactive: dose: 6.25 mg/kg/injection, schedule: Q04DX003 (ip), vehicle: saline with Tween-80 95 % of control | dose: 12.5 mg/kg/injection, schedule: Q04DX003 (ip), vehicle: saline with Tween-80 90 % of control | dose: 25.0 mg/kg/injection, schedule: Q04DX003 (ip), vehicle: saline with Tween-80 96 % of control

N#CC1CNC(=S)N=C1c1ccccc1 (stereo not given)
inactive: [2] 100 % of control | [4] 95 % of control

OCC(O)C(O)C(O)C(O)CN=Cc1ccccc1O (stereo not given)
inactive: [6] 109 % of control | [7] 95 % of control | [8] 103 % of control

CCCCNC(C)(C)C(SS)c1cccs1 (stereo not given)
inactive: [9] 96 % of control | [10] 92 % of control | [11] 96 % of control

COC(=O)/C(=C\c1ccc([N+](=O)[O-])s1)C(C)=O
inactive: dose: 6.25 mg/kg/injection, schedule: Q01DX005 (ip), vehicle: saline with Tween-80 92 % of control | dose: 12.5 mg/kg/injection, schedule: Q01DX005 (ip), vehicle: saline with Tween-80 94 % of control | dose: 12.5 mg/kg/injection, schedule: Q04DX003 (ip), vehicle: saline 94 % of control | dose: 25.0 mg/kg/injection, schedule: Q04DX003 (ip), vehicle: saline 96 % of control | dose: 50.0 mg/kg/injection, schedule: Q04DX003 (ip), vehicle: saline 86 % of control

CN1C(=O)NC(=O)C1c1ccccc1 (stereo not given)
inactive: [12] 117 % of control | [13] 106 % of control | dose: 400.0 mg/kg/injection, schedule: Q04DX002 (ip), vehicle: saline 106 % of control

CN(C)C(=O)Sc1ccc(SC(=O)N(C)C)cc1
inactive: [14] 97 % of control | [15] 97 % of control | [16] 97 % of control

[Cl][Hg][CH2]CC1CC=CCC1 (stereo not given)
inactive: dose: 3.13 mg/kg/injection, schedule: Q01DX009 (ip), vehicle: saline sonified 92 % of control | dose: 6.25 mg/kg/injection, schedule: Q01DX009 (ip), vehicle: saline sonified 94 % of control | dose: 6.25 mg/kg/injection, schedule: Q04DX003 (ip), vehicle: Klucel (hydroxypropylcellulose) (HPC) 98 % of control | dose: 12.5 mg/kg/injection, schedule: Q01DX009 (ip), vehicle: saline sonified 100 % of control | dose: 12.5 mg/kg/injection, schedule: Q04DX003 (ip), vehicle: Klucel (hydroxypropylcellulose) (HPC) 87 % of control

CCCCNC(C)(C)C(SS)c1ccc(C(F)(F)F)cc1 (stereo not given)
inactive: dose: 25.0 mg/kg/injection, schedule: Q01DX009 (ip), vehicle: other 96 % of control | dose: 25.0 mg/kg/injection, schedule: Q04DX003 (ip), vehicle: other 98 % of control | dose: 50.0 mg/kg/injection, schedule: Q01DX009 (ip), vehicle: other 94 % of control | dose: 50.0 mg/kg/injection, schedule: Q04DX003 (ip), vehicle: other 93 % of control | dose: 100.0 mg/kg/injection, schedule: Q01DX009 (ip), vehicle: other 98 % of control | dose: 100.0 mg/kg/injection, schedule: Q04DX003 (ip), vehicle: other 86 % of control

COc1ccccc1NC(=O)NCc1cccc2ccccc12
inactive: [17] 107 % of control | [18] 104 % of control | [19] 100 % of control

CC1CN=C(c2ccc(NC(=O)c3ccc(C(=O)Nc4ccc(C5=NCC(C)N5)cc4)c(N)c3)cc2)N1 (stereo not given)
inactive: dose: 15.0 mg/kg/injection, schedule: Q01DX Z (ip), vehicle: saline 92 % of control | dose: 30.0 mg/kg/injection, schedule: Q01DX Z (ip), vehicle: saline 86 % of control | dose: 62.5 mg/kg/injection, schedule: Q01DX010 (oral), vehicle: saline 100 % of control | dose: 125.0 mg/kg/injection, schedule: Q01DX010 (oral), vehicle: saline 100 % of control | dose: 250.0 mg/kg/injection, schedule: Q01DX010 (oral), vehicle: saline 101 % of control | dose: 500.0 mg/kg/injection, schedule: Q01DX010 (oral), vehicle: saline 105 % of control

O=Cc1[nH]c(=S)[nH]c(=O)c1Cc1cc([N+](=O)[O-])ccc1O
inactive: [14] 93 % of control | [15] 104 % of control | [16] 95 % of control

NCc1c(Cl)cccc1[N+](=O)[O-]
inactive: dose: 50.0 mg/kg/injection, schedule: Q01DX009 (ip), vehicle: Klucel (hydroxypropylcellulose) (HPC) 96 % of control and 108 % of control | [1] 96 % of control and 99 % of control and 101 % of control | [17] 105 % of control | [12] 102 % of control | [3] 94 % of control and 104 % of control and 110 % of control | [18] 100 % of control | [13] 94 % of control

CC(C)(C)C1=C(C(C)(C)C)CS(=O)(=O)C1
inactive: dose: 25.0 mg/kg/injection, schedule: Q01DX001 (ip), vehicle: saline with Tween-80 98 % of control | dose: 50.0 mg/kg/injection, schedule: Q01DX001 (ip), vehicle: saline with Tween-80 100 % of control | [14] 100 % of control and 107 % of control

NC(=O)OCC(COC(N)=O)(c1ccccc1)c1ccccc1
inactive: dose: 45.0 mg/kg/injection, schedule: Q01DX001 (ip), vehicle: saline 101 % of control | dose: 67.0 mg/kg/injection, schedule: Q01DX001 (ip), vehicle: saline 95 % of control and 101 % of control | [5] 98 % of control | dose: 150.0 mg/kg/injection, schedule: Q01DX001 (ip), vehicle: saline 95 % of control and 104 % of control

COC(=O)c1ccc(C(=O)OC)o1
inactive: [17] 113 % of control | [18] 98 % of control | [19] 106 % of control

CCOC(Cn1ccc(=O)[nH]c1=O)OCC
inactive: [9] 109 % of control | [10] 96 % of control | [11] 105 % of control

Fc1cccc(CSC(=S)Nc2ccc(Cl)c(Cl)c2)c1
inactive: dose: 50.0 mg/kg/injection, schedule: Q04DX003 (ip), vehicle: saline with Tween-80 101 % of control | [20] 104 % of control

O=c1[nH]c(=O)n(C2CC=CO2)cc1F (stereo not given)
inactive: [21] 111 % of control | [22] 113 % of control | dose: 400.0 mg/kg/injection, schedule: Q04DX003 (ip), vehicle: saline 117 % of control

NC(CS)=NCCc1nc2ccccc2[nH]1
inactive: [12] 107 % of control

Cc1cc(I)c(C)s1
inactive: [20] 96 % of control | dose: 200.0 mg/kg/injection, schedule: Q04DX003 (ip), vehicle: saline with Tween-80 96 % of control | dose: 400.0 mg/kg/injection, schedule: Q04DX003 (ip), vehicle: saline with Tween-80 98 % of control

COC1CCC2CC3C4Cc5cn[nH]c5C5OC1C2C54CCN3C (stereo not given)
inactive: [21] 95 % of control | [22] 86 % of control

Cc1cccc[c]1[Sb]([c]1ccccc1C)[c]1ccccc1C
inactive: [6] 100 % of control | [7] 96 % of control | [8] 96 % of control
